Patent US8541437B2, “Substituted 2,3,4,5-tetrahydro-1H-pyrido[4,3-b]indoles, methods for the production and use thereof” (Alla Chem, LLC, priority 2007, dated 2013)
pEC50, pIC50: −log10 of the molar value.

Experiments:
BALB/c male mice [1] = test: Mice Behavior in the Elevated Plus Maze; type: in vivo
Source text: Plus Maze”. The length of each arm in the labyrinth was 30 cm, the width was 5 cm, the height of the walls was 15 cm. Two opposite arms were closed from sides and end faces by transparent walls, the other two arms were lit and opened. A mouse was placed in the center of the maze and for the next five minutes the number of entries the open and closed sections and the time spent in each type of arms was registered. […]

BALB/c male mice [2] = test: Passive Avoidance of Mice in a Shuttle Chamber, memory disturbed by scopolamine (Example 7); type: in vivo; conditions: scopolamine 0.3 mg/kg
Method: A shuttle chamber (Ugo Basile, Italy) consisted of two sections was used. […] The sections were connected through a hole which could be shut with a vertical door. The floor was made of transverse metal bars on which DC current impulses could be fed. Experiments were carried out in aged male mice of BALB/c line weighing 20-24 grams. On the first day of the experiment 30 minutes before training the mice were injected intraintestinally with physiological solution of scopolamine (0.3 mg/kg) or Scopolamine in combination with antagonists of 5-HT6 receptors 1.2.1(2)HCl, 1.2.1(4)HCl or 1.2.1(5)HCl. Each group consisted of at least 8 animals. The animals were placed in the light section, and the latent period of the first entry into the dark chamber was registered. Then the vertical door was shut and the animal was punished by 0.6 mA DC current for 3 seconds. After that the animal was returned to its living cage. In 22-24 hours the same animal was placed again in the light section of the shuttle chamber and the latent period of its first entry into the dark section, the total time of its stay in the light section and the number of entries into the dark section were registered. Each observation lasted for 5 minutes. The experiment was carried out during the day time in an isolated laboratory using white noise at a level of about 70 decibel above the human hearing threshold. Scopolamine causes the disturbance of training (memory loss) which results in […] and a decreased number of entries into the dark section. The fact that 5-HT6 receptor antagonists can improve the learning ability that has been disturbed by scopolamine is regarded as evidence for their nootropic effect.

5-HT6 receptor = biological target: T1, 5-HT6 receptor (Homo sapiens, UniProt P50406); test: Inhibition of serotonin-stimulated intracellular cAMP in HEK 293 cells with expressed 5-HT6 receptor (LANCE cAMP); type: cell-based; conditions: serotonin-induced cAMP
T1 construct: expressed in transfected cells; host or cells: HEK 293
Method: The cells HEK 293 (kidney cells of a human embryon) with an artificially expressed 5-HT6 receptor, activation of which with serotonin results in intracellular cAMP increasing, were used. The concentration of intracellular cAMP was determined using a LANCE cAMP reagent (PerkinElmer) by the method described by the manufacturer: [http://las.perkinelmer.com/content/Manuals/MAN_LANCEcAMP384KitUser.pdf].
The effectiveness of the compounds was estimated on the basis of their ability to reduce the concentration of intracellular cAMP induced by serotonin, FIG. 1.

H1 histamine receptor = H1 histamine receptor (Homo sapiens, UniProt P35367); test: Histamine-induced intracellular calcium in SK-N-SH cells (Fura 2 AM), Phase 1: block of calcium entry
Method: SK-N-SH Cells (ATCC, USA) were grown in DMEM medium (Invitrogen, USA) containing 10% fetal calf serum (FBS) and Penicillin-Streptomycin antibiotics, in CO2 incubator (5% CO2) until getting the cell density 1*10^5 cells/cm^2. The cells were removed from the surface of the flask with TrypLE Express reagent (Invitrogen, USA), then collected by means of centrifugation and resuspended in Hybridoma Serum Free Medium (HSFM, Sigma, USA) providing the concentration of 4*10^6 cells/ml. For measuring the intracellular concentration of calcium the cells were loaded with the calcium-sensitive fluorescent dye Fura 2 AM (Invitrogen, USA) by incubating their suspension with the dye for 30 minutes at room temperature. Again, the cells were collected by centrifugation, resuspended in HSFM; incubated for 15 minutes, recollected by centrifugation, washed twice with HSFM and resuspended in HSFM setting up the concentration 4*10^6 cells/ml. The cells were diluted with an operating buffer (NaCl 0.145 M, KCl 0.0054 M, NaH2PO4 0.001 M, MgSO4 0.0008 M, CaCl2 0.0018 M, HEPES 0.03 M, D-glucose 0.0112 M pH 7.4) to the concentration of 1*10^5 cells/ml in a measuring cell with a magnet stirrer, after that the fluorescence registration was carried out in the mode of two-wavelength excitement (340 and 380 nm, respectively) with an emission wavelength of 510 nm (F1 and F2, respectively). In 20 seconds after the beginning of registration, 10 mM of histamine water solution was added (a final concentration is 10 μM). […] In order to estimate the biological activity of the compounds, their serial DMSO dilutions were prepared and the correlation between the influence of the compound on the histamine induced calcium stream and its concentration was determined. The transforming fluorescent signal into calcium concentration was carried out by means of the equation built in the program Super Ion Probe (Shimadzu) software. For this purpose the maximum concentration of free calcium was determined by adding 0.1 mg/ml of digitonine (Sigma, USA) up to 0.1 mg/ml, while the zero calcium concentration—by adding of ethylene-diamin-tetraacetate (EDTA) up to 10 mM. Kinetic curves of lowering intracellular calcium concentration after the addition of the tested compound in the presence of histamine were calculated with a single-phase exponential model using the Prism 4 software (GraphPad Software, Inc.): [Ca]=[Ca]max*exp(−K*T)+[Ca]min where T is the time after the tested compound was added, [Ca]max and [Ca]min are the maximum (the peak value after the addition of histamine) and the minimum (the equilibrium level the curve approached after the addition of the tested compound) concentrations of intracellular calcium, K is the rate constant of intracellular calcium concentration lowering calculated by minimization of least square deviations.
The calculated rate constants of calcium concentration lowering (K) were used to determine their dependence on the tested compound concentration (C); and by means of the program Prism 4 using this dependence the values of EC50 (the concentration of the tested compound corresponding to half-maximum increasing of the rate constant of intracellular calcium concentration lowering) were determined by virtue of four parameter equation
[formula] where KBkg and Kmax are the rate constants of calcium concentration lowering without and in the presence of infinitely large concentration of the tested compound, respectively; N is Hill's coefficient.

BALB/c male mice [3] = test: Mice Training in the Morris Water maze, memory disturbed by Scopolamine; type: in vivo; conditions: Scopolamine 0.6 mg/kg, 1.2.1(5)HCl 0.1 mg/kg, 1.2.1(1)HCl 1 mg/kg, Tacrine 3 mg/kg
Method: A round pool of 100 cm in diameter and sides height of 30 cm was used. It was filled with water at 20-22° C. A round ceramic platform of 14 cm height was placed in the pool. Animals's behavior was registered with an automated computer video system in combination with software package of movement analysis Any-maze (Stoelting Co., US). The experiments were carried out on aged male mice of BALB/c line weighing 20-24 grams. Before the experiments mice suitable for training were selected. This was done by placing the platform 1 cm above the water level and putting an animal on the platform for 20 seconds. Then the mouse was sunk into the water on the opposite side of the pool, allowed to find the platform and climb it for 60 seconds, where it was left for additional 20 seconds. After that the mouse was repeatedly immersed into the water on the opposite side of the pool and allowed to look for the platform. If it failed in finding the platform within 60 seconds the experimentator helped it to find the platform and climb it. If the mice couldn't find the platform itself in two consecutive attempts it was excluded from the experiment. During the next two days the platform was placed 0.5 cm lower the water level. Every day the mice were given four attempts for finding the platform within 60 seconds. The time interval between the attempts was 20 seconds, during which the mice stayed on the platform. Every day before the first attempt the mice was placed on the platform for 20 seconds. The time needed for finding and climbing the platform was registered. The animals were sunk into water in two different places on the side of the pool opposite to the platform. […] The animals of the control group were injected with physiological solution. At least 8 animals were used in each group. On the third day the platform was removed and each animal was placed one time into the pool for a period of 60 seconds. The time each mouse spent in the area where the platform had been located during the previous days was registered. […]

SHK male mice = test: Novel object recognition by mice against the background of Scopolamine and MK-801; type: in vivo; conditions: Scopolamine 1 mg/kg, MK-801 0.2 mg/kg
Method: The experiments were carried out in a cross like maze which consisted of 4 peripheral arms connected with the central chamber by 7×7 cm holes. The maze was made of black plastic and its arms were of 14×14×14 cm size. The top cover of the maze was transparent.
A mouse was placed in the central chamber of the maze and allowed to investigate the environment. Criterion of entering an arm by the animal was detecting of all its paws inside the arm. The test was considered to be completed when the mouse had accomplished 12 transitions between the arms (having made 13 visits). The floor of the maze was cleaned after each animal.
The test was carried out twice with each mouse with 1 hour interval.
During the first test each arm of the maze contained a circular plastic cup of 3 cm height and 7 cm diameter. In the second test the cover of each two opposing arms was replaced by a conical glass flask of 7 cm height and 4 cm across the bottom. The time the mouse spent in each arm of the maze was registered and the index of novel object recognition was calculated as the ratio of the time the mouse spent in the arms with the flasks to the time it spent in all arms of the maze. If no preference was given to the arms with novel objects the index was 0.5.
The mice spend more time in the arm containing novel objects that results in an increasing of recognition index. Scopolamine (1 mg/kg) and MK-801 (0.2 mg/kg) disturbed learning (memory) that leads to the lowering of recognition index.

BALB/c male mice [4] = test: Passive Avoidance of Mice in the Shuttle Chamber, scopolamine or MK-801 (Example 8); type: in vivo; conditions: scopolamine 0.3 mg/kg or MK-801 0.1 mg/kg
Method: A shuttle chamber (Ugo Basile, Italy) consisted of two sections was used. […] The sections were connected through a hole which could be shut with a vertical door. The floor was made of transverse metal bars on which DC current impulses could be fed. Experiments were carried out in aged male mice of BALB/c line weighing 20-24 grams.
On the first day of the experiment 30 minutes before training the mice were injected intraintestinally with physiological solution of scopolamine (0.3 mg/kg) or Scopolamine in combination with antagonists of 5-HT6 receptors 1.2.1(2)HCl, 1.2.1(4)HCl or 1.2.1(5)HCl. Each group consisted of at least 8 animals. The animals were placed in the light section, and the latent period of the first entry into the dark chamber was registered. Then the vertical door was shut and the animal was punished by 0.6 mA DC current for 3 seconds. After that the animal was returned to its living cage. In 22-24 hours the same animal was placed again in the light section of the shuttle chamber and the latent period of its first entry into the dark section, the total time of its stay in the light section and the number of entries into the dark section were registered. Each observation lasted for 5 minutes.
The experiment was carried out as in example 7. […]

H1 histamine receptor, sequence (P35367 whole entry): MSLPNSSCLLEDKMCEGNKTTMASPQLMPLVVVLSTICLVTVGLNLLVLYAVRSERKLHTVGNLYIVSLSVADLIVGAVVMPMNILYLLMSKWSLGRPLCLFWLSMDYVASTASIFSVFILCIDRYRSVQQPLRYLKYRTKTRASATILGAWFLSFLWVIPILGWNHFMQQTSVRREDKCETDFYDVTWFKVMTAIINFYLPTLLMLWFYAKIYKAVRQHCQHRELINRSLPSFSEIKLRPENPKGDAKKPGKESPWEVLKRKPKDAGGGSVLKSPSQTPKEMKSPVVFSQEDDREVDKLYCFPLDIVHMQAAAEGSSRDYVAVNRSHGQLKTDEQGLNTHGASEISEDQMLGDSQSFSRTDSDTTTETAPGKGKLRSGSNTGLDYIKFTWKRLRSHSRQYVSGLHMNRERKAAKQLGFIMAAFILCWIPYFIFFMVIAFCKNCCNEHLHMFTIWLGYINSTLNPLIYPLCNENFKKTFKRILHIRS
T1 sequence (P50406 whole entry): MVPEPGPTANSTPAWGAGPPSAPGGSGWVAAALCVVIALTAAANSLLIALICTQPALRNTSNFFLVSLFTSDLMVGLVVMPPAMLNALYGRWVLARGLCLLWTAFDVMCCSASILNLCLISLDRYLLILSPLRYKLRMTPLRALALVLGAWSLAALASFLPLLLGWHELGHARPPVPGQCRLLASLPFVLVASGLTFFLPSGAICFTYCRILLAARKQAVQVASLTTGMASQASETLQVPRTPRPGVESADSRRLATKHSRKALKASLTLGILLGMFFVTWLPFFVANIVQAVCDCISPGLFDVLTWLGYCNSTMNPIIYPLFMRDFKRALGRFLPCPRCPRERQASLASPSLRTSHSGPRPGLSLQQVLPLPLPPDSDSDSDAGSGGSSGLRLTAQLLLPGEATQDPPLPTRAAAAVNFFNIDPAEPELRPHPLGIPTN

SMILES | tranquilizing action (elevated plus maze, FIG. 19-21) (BALB/c male mice [1]) | nootropic action (passive avoidance, FIGS. 2-4) (BALB/c male mice [2]) | pIC50 (5-HT6 receptor) | pEC50 (H1 histamine receptor) | improvement of mice's training (Morris water maze, FIG. 11-12) (BALB/c male mice [3]) | nootropic action (novel object recognition, FIG. 13-14) (SHK male mice) | nootropic action (passive avoidance, FIGS. 5-10) (BALB/c male mice [4])
O=C1CC2(CCCC2)CC(=O)N1CCCCN1CCN(c2ncccn2)CC1 [Buspiron] | exhibit a tranquilizing action |  |  |  |  |  | 
Cc1ccc2c(c1)c1c(n2CCc2ccncc2)CCN(C)C1.Cl [1.2.1(2)HCl, 2,8-dimethyl-5-[2-(pyridin-4-yl)ethyl]-2,3,4,5-tetrahydro-1H-pyrido[4,3-b]indole hydrochloride] |  | exhibit a nootropic action which is the most prominent | 6.37 | 6.80 |  |  | 
Cc1ccc2c(c1)c1c(n2CCc2ccccc2)CCN(C)C1.Cl [1.2.1(1)HCl, 2,8-dimethyl-5-(2-phenethyl)-2,3,4,5-tetrahydro-1H-pyrido[4,3-b]indole hydrochloride] | exhibit a tranquilizing action, which is the most prominent |  |  |  | statistically significant improvement of mice's training | nootropic action, the level of which is the most prominent | highest activity
Nc1c2c(nc3ccccc13)CCCC2 [Tacrine] |  |  |  |  | statistically significant improvement of mice's training |  | 
Cc1ccc2c(c1)c1c(n2CCc2ccccn2)CCN(C)C1.Cl [1.2.1(4)HCl, 2,8-dimethyl-5-[2-(pyridin-2-yl)ethyl]-2,3,4,5-tetrahydro-1H-pyrido[4,3-b]indole hydrochloride] |  | exhibit a nootropic action which is the most prominent |  | 6.30 |  |  | 
Cc1ccc2c(c1)c1c(n2CCc2ccc(C)nc2)CCN(C)C1.Cl [1.2.1(5)HCl, 2,8-dimethyl-5-[2-(6-methylpyridin-3-yl)ethyl]-2,3,4,5-tetrahydro-1H-pyrido[4,3-b]indole hydrochloride, reference compound] | exhibit a tranquilizing action | exhibit a nootropic action | 5.36 | 6.80 | statistically significant improvement of mice's training | nootropic action | act as nootropic
